Source: ChEMBL document CHEMBL4482322, “Uses of tryptanthrin and derivative thereof in preparing hldo2 inhibitor” (2017)
pIC50, pKi: −log10 of the molar value.

Legend:
[1] = target: T1, Indoleamine 2,3-dioxygenase 2 (Homo sapiens) (UniProt Q6ZQW0); test: Inhibition of human IDO2 at 10 uM using L-tryptophan as substrate incubated for 30 min assessed as reduction in conversion of N-formyl kynurenine to kynurenine relative to control
T1 sequence (whole entry): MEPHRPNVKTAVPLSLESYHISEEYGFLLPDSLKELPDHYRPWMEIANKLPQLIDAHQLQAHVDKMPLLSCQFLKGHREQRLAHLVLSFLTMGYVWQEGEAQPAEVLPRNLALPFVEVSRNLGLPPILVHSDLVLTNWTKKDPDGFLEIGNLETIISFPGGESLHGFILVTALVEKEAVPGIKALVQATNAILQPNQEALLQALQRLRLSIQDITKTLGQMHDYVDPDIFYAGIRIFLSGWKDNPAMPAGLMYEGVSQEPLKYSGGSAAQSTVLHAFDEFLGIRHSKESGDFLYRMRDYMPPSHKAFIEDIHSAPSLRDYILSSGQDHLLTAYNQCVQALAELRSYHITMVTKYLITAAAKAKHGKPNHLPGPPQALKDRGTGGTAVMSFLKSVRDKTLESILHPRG

[2] = target: T2, Indoleamine 2,3-dioxygenase 1 (Homo sapiens, UniProt P14902); test: Inhibition of IDO1 in human U87MG cells in presence of L-tryptophan incubated for 24 h; type: cell-based
T2 sequence (P14902 whole entry): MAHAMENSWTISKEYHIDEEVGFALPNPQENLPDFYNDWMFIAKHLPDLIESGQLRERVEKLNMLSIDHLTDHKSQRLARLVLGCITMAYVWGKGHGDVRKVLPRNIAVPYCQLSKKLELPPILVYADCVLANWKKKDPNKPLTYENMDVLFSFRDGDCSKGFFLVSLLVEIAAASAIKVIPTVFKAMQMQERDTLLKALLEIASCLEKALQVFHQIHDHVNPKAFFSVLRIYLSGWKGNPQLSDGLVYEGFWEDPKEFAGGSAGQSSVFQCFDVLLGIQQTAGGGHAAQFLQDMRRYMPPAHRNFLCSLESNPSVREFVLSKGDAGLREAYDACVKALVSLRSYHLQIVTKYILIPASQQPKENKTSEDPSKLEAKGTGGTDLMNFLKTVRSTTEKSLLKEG

[3] = target: T3, Indoleamine 2,3-dioxygenase 2 (Homo sapiens, UniProt Q6ZQW0); test: Inhibition of human IDO2 using L-tryptophan as substrate assessed as reduction in conversion of N-formyl kynurenine to kynurenine
T3 sequence (Q6ZQW0 whole entry): T1 sequence (whole entry)

[4] = target: T2, Indoleamine 2,3-dioxygenase 1; test: Inhibition of IDO1 (unknown origin) using L-tryptophan as substrate incubated for 30 min assessed as reduction in conversion of N-formyl kynurenine to kynurenine by dixon plot analysis

inhibition [1] [%]	SMILES	also measured
8	Cn1cc(C[C@@H](N)C(=O)O)c2ccccc21	
18 to 47	Cc1ccc2c(c1)C(=O)c1nc3ccccc3c(=O)n1-2	pIC50 [2]: < 2.41
18 to 47	O=C1c2cc(Br)ccc2-n2c1nc1ccccc1c2=O	
18 to 47	O=C1c2ccc(Cl)cc2-n2c1nc1ccccc1c2=O	
63	O=C1c2cc([N+](=O)[O-])ccc2-n2c1nc1ccccc1c2=O	pIC50 [3]: 5.73
18 to 47	O=C1c2ccccc2-n2c1nc1ccc(F)cc1c2=O	pIC50 [2]: < 2.41; pKi [4]: < 2.41
18 to 47	O=C1c2ccccc2-n2c1nc1ccccc1c2=O	
18 to 47	O=C1c2cc(F)ccc2-n2c1nc1ccc(F)cc1c2=O	
18 to 47	O=C1c2cc(F)ccc2-n2c1nc1ccccc1c2=O	
8	Cn1cc(C[C@H](N)C(=O)O)c2ccccc21	
18 to 47	O=C1c2c(Cl)cccc2-n2c1nc1ccccc1c2=O	
